Measured values: the supplement of paper PMC8920030

Assays:
Conditions in all cases: growth mode: biofilm, 24 h; exposure time: 24 h
tobramycin [1] = compound: T1, NC[C@H]1O[C@H](O[C@H]2[C@H](O)[C@@H](O[C@H]3O[C@H](CO)[C@@H](O)[C@H](N)[C@H]3O)[C@H](N)C[C@@H]2N)[C@H](N)C[C@@H]1O [tobramycin]; assay: minimum concentration of killing, 1-log CFU reduction of biofilm (MCK90); higher = more biofilm tolerance
Experimental: (§1)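 Clinical P. aeruginosa isolates were grown as static biofilms for 24 h at 37 °C in LB in half-area 96-well plates, then exposed for 24 h to tobramycin at 1, 4, 16, 64, 256 or […]. Surviving CFU were counted by spotting serial dilutions. MCK is the lowest tested concentration giving the stated log reduction in CFU versus an untreated control; '>1024' means the reduction was not reached at the top dose, and 1 is the lowest dose tested (≤1).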

colistin [2] = compound: T2, CCC(C)CCCC(=O)N[C@@H](CCN)C(=O)N[C@H](C(=O)N[C@@H](CCN)C(=O)N[C@H]1CCNC(=O)[C@H]([C@@H](C)O)NC(=O)[C@H](CCN)NC(=O)[C@H](CCN)NC(=O)[C@H](CC(C)C)NC(=O)[C@@H](CC(C)C)NC(=O)[C@H](CCN)NC1=O)[C@@H](C)O [colistin]; assay: minimum concentration of killing, 2-log CFU reduction of biofilm (MCK99); higher = more biofilm tolerance
Experimental: as §1, with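 “colistin” for “tobramycin”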

tobramycin [3] = compound: T1, tobramycin; assay: minimum concentration of killing, 4-log CFU reduction of biofilm (MCK99.99); higher = more biofilm tolerance
Experimental: as §1

colistin [4] = compound: T2, colistin; assay: as above
Experimental: as §1, with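 “colistin” for “tobramycin”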

tobramycin [5] = compound: T1, tobramycin; assay: minimum concentration of killing, 2-log CFU reduction of biofilm (MCK99); higher = more biofilm tolerance
Experimental: as §1

tobramycin [6] = compound: T1, tobramycin; assay: minimum concentration eradicating biofilm below detection limit (MCK-E); higher = more biofilm tolerance
Experimental: as §1

colistin [7] = compound: T2, colistin; assay: as above
Experimental: as §1, with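 “colistin” for “tobramycin”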

colistin [8] = compound: T2, colistin; assay: minimum concentration of killing, 1-log CFU reduction of biofilm (MCK90); higher = more biofilm tolerance
Experimental: as §1, with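 “colistin” for “tobramycin”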

Test System	minimum concentration of killing (tobramycin [1]) [µg/mL]	minimum concentration of killing (colistin [2]) [µg/mL]	minimum concentration of killing (tobramycin [3]) [µg/mL]	minimum concentration of killing (colistin [4]) [µg/mL]	minimum concentration of killing (tobramycin [5]) [µg/mL]	minimum concentration eradicating biofilm below detection limit (tobramycin [6]) [µg/mL]	minimum concentration eradicating biofilm below detection limit (colistin [7]) [µg/mL]	minimum concentration of killing (colistin [8]) [µg/mL]
Pseudomonas aeruginosa clinical isolate ESP040	4	64	64	64	16	64	64	64
Pseudomonas aeruginosa clinical isolate ESP044	4	64	256	256	64	256	256	64
Pseudomonas aeruginosa clinical isolate ESP046	16	256	1020	256	1020	1020	256	256
Pseudomonas aeruginosa clinical isolate ESP050	64	256	1020	256	1020	1020	256	64
Pseudomonas aeruginosa clinical isolate ESP054	4	256	256	256	4	256	256	64
Pseudomonas aeruginosa clinical isolate ESP055	≤ 1	256	16	256	16	64	256	64
Pseudomonas aeruginosa clinical isolate ESP058	4	256	64	256	16	64	256	256
Pseudomonas aeruginosa clinical isolate ESP059	≤ 1	256	256	256	4	256	256	64
Pseudomonas aeruginosa clinical isolate ESP060	> 1020	256	> 1020	1020	> 1020	> 1020	1020	256
Pseudomonas aeruginosa clinical isolate ESP063	256	16	> 1020	256	1020	> 1020	256	≤ 1
Pseudomonas aeruginosa clinical isolate ESP066	256	256	> 1020	1020	256	> 1020	1020	256
Pseudomonas aeruginosa clinical isolate ESP067	4	256	256	256	16	1020	256	64
Pseudomonas aeruginosa clinical isolate ESP070	1020	256	> 1020	1020	1020	> 1020	1020	64
Pseudomonas aeruginosa clinical isolate ESP072	4	256	256	256	16	256	256	64
Pseudomonas aeruginosa clinical isolate ESP073	16	256	64	256	16	256	256	16
Pseudomonas aeruginosa clinical isolate ESP075	≤ 1	256	64	256	4	256	256	256
Pseudomonas aeruginosa clinical isolate ESP076	> 1020	256	> 1020	256	> 1020	> 1020	256	256
Pseudomonas aeruginosa clinical isolate ESP077	1020	64	1020	256	1020	> 1020	256	64
